Test results: patent publication EP3069727B1, “PHARMACEUTICAL COMPOSITION FOR CANCER PREVENTION AND TREATMENT CONTAINING PEPTIDE ORIGINATED FROM C12ORF59 PROTEIN AS AN ACTIVE INGREDIENT” (Korea Research Institute of Bioscience and Biotechnology, priority 2015, dated 2018)
Residues, ends and D or L forms follow the SMILES beside them.

Assays:
[1] = test system: C8161 (human melanoma) cells; assay: In vivo experimental metastasis mouse model; parameters: species or system Nude mice (BALB/c-nude); details: 200µg/100µℓ PBS intravenously twice per week (total 7 times); 4 weeks; vs PBS
Method: In vivo therapeutic efficacy of A_intact peptide was evaluated using experimental metastasis mouse model. The in vivo experimental metastasis model was constructed as described below.
Nude mice (BALB/c-nude, 6 weeks old, female) were obtained from Charles River Japan (Japan). C8161 (human melanoma) cells (8 x 10^5 cells in 100 µℓ PBS per mouse) were injected into the tail vein. Two days later, mice were randomized into control and treatment groups (n=5 per group) . Modified A_intact peptide (200µg/100µℓ PBS) or A_intact-Fc fusion protein (100µg/100µℓ PBS) were intravenously injected into each mouse twice per week (total 7 times). As a negative control, PBS (100µℓ/mouse) was injected. All animals were killed at 4 weeks after injection of cancer cells. Lung and liver were excised and fixed in 10% formalin for 24 h. Metastatic foci on the surface of lung and liver were counted.

SW480sub cells = assay: Invasion assay (Matrigel-coated transwell, collagen type I chemoattractant) with peptide-treated SW480sub cells; assay type: cell-based; details: for invasion reduced compared to the vehicle control: peptide 50 µM
Method: SW480sub was subpopulation of SW480 having high in vitro invasion and in vivo metastasis ability. The effect of each peptide on colorectal cancer cell invasion was analyzed using the said SW480sub. SW480sub cells were mixed with each peptide, followed by pre-incubation for 30 minutes.
(§1) Particularly, the porous membrane of 24-well transwell plate (8 µm pore size; Costar, USA) was coated with 100 µℓ of matrigel (BD Biosciences, USA) diluted in serum free medium at the concentration of 250 µg/mℓ, which stood at room temperature for 1 hour for fixing. The lower part of the transwell plate was coated with 100 µℓ of collagen type I (Sigma) at the concentration of 20 µg/mℓ. The said collagen type I was used as a chemoattractant. 1×10^4 cells resuspended in serum free medium were distributed in the upper chamber of the said 24-well transwell plate, followed by culture at 37°C with 5% CO2 for 48 hours, during which the cells were induced to migrate from the upper chamber to the lower chamber. The non-migrated cells were eliminated from the surface of the upper chamber. […] The excessive crystal violet solution was washed off with distilled water. The selected area (×100) was photographed. The number of the cells migrated was counted from 5 different selected areas. Then, mean value and standard error were obtained.

colorectal cancer cells = assay: Cellular survival rate of colorectal cancer cells measured by absorbance; assay type: cell-based; details: as in Example <3-2>
Method: (§2) Particularly, 100 µℓ of poly-HEMA (Sigma) at the concentration of 12 mg/mℓ was loaded in 96-well plate, which stood in clean bench for 1 day, followed by drying. On the next day, the plate was coated with Poly-HEMA once again. Cells were distributed in the poly-HEMA coated plate by 100 µℓ/well (1×10^4 cells/well). At that time, serum-free medium was used. 6 days later, 10 µℓ of CCK-8 reagent (Dojindo cat. CK04-13) was added to each well, followed by reaction for 3 hours. Then, OD450 was measured.
In particular, a cellular survival rate was measured using absorbance in the same manner as in Example <3-2>.

SW480 cells [2] = assay: Invasion assay with peptide-treated SW480 cells; assay type: cell-based; details: concentration not given
Method: as §1
SW480 colorectal cancer cells were treated with peptides originated from C12orf59, and effects of the peptids on invasion of the cells were analyzed.

[3] = test system: C8161 (human melanoma) cell line; assay: Invasion assay with C8161 cells (Matrigel-coated Transwell); assay type: cell-based; details: 24 h
Method: Specifically, C8161 (human melanoma) cell line was cultured in DMEM containing 10% FBS, penicillin-streptomycin, L-glutamine, sodium pyruvate and glucose. C8161 cells (1 x 10^4) in the presence of the peptide were plated in serum-free medium on 24-well Transwell inserts (8 µm pore size; Costar, USA) coated with 25 µg of […] (BD Biosciences, USA). The underside of the insert was coated with 100 µℓ of collagen type I (Sigma) at the concentration of 5 µg/mℓ. […] The number of cells that had invaded was counted in five representative fields per insert. Then, mean value and standard deviation were obtained.

SW480 cells [4] = assay: Cell survivability under anchorage independent condition (poly-HEMA plate, CCK-8, OD450); assay type: cell-based; details: peptide 100 µg/mℓ, 6 days
Method: 6 days later, cell survivability was measured by colorimetric technique under the anchorage independent condition.
as §2

**Q.** Which “metastasis to the liver (metastatic nodules)” value [1] does the source give for `CC(=O)N[C@@H](CCC(=O)O)C(=O)N[C@@H](CCC(=O)O)C(=O)N[C@@H](CC(N)=O)C(=O)N[C@@H](CS)C(=O)NCC(=O)N[C@@H](CC(N)=O)C(=O)N1CCC[C@H]1C(=O)N[C@@H](CCC(=O)O)C(=O)N[C@@H](Cc1c[nH]cn1)C(=O)N[C@@H](CS)C(=O)N[C@@H](CC(C)C)C(=O)N[C@H](C(=O)N[C@H](C(=O)N[C@@H](CC(=O)O)C(=O)N[C@@H](Cc1c[nH]c2ccccc12)C(=O)N[C@H](C(=O)N[C@@H](Cc1c[nH]cn1)C(N)=O)C(C)C)[C@@H](C)O)[C@@H](C)O` [Modified A_intact peptide] (Ac-EENCGNPEHCLTTDWVH-NH2) here?
**A.** inhibited

**Q.** And the “metastasis to the lung (metastatic nodules)” value [1]?
**A.** inhibited

**Q.** How did the “invasion reduced compared to the vehicle control” value (SW480sub cells) turn out when PCCISSCCLT [B_Cen] was run?
**A.** 33%

**Q.** Which “effect on the survival of colorectal cancer cells” value (colorectal cancer cells) does the source give for PCCISSCCLTTDWVH [B_N-term] here?
**A.** inhibitory effects on the survival of colorectal cancer cells in a concentration-dependent manner

**Q.** And the “invasion of cells reduced by” value (SW480 cells [2])?
**A.** 55%

**Q.** SWRPQPCCISSCCLT [B_C-term1] was tested. Which “invasion reduced compared to the vehicle control” value (SW480sub cells) did it give?
**A.** 73%

**Q.** What about the “effect on the survival of colorectal cancer cells” value (colorectal cancer cells) of the same molecule?
**A.** inhibitory effects on the survival of colorectal cancer cells in a concentration-dependent manner

**Q.** What about the “invasion of cells reduced by” value (SW480 cells [2]) of the same molecule?
**A.** 45%

**Q.** Which results are given for “SWRPQPCCISSCCLTTDWVH [B_intact, fragment of C12orf59 isoform 2 extracellular domain, 20 amino acids]”?
**A.** invasion rate reduced compared to the control (SW480sub cells; peptide 43 µM): 29%; colorectal cancer cell invasion reduced by (SW480sub cells; peptide 100 µg/mℓ, 48 hours): 90%; invasion of cells reduced by (SW480 cells [2]): 47%; C8161 invasion reduced by ([3]; 30 µg/mℓ): 48%; C8161 invasion reduced by ([3]; 100 µg/mℓ): 70%; cell survivability reduced by (SW480 cells [4]): 90%
